Among the data in patent US12384789B2, “Compounds for treating Huntington's disease” (PTC Therapeutics, Inc., priority 2017, dated 2025) are IC50 values, retold here.

The assay relates to Endogenous Huntingtin Protein. The experiment in a line: Endogenous Huntingtin Protein Assay (Meso Scale Discovery ELISA-based electrochemiluminescence). It counts as cell-based. As to conditions: MSD electrochemiluminescence, Table 1. Summed up:
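MSD electrochemiluminescence sandwich ELISA: MW1 (expanded polyQ) or MAB2166 capture antibody at 1 μg/mL, samples incubated overnight at 4° C. Detection with rabbit monoclonal #5656S then SULFO-TAG anti-rabbit antibody, each 0.25 μg/mL for 1 h at room temperature.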
Background: ELISA stands for enzyme-linked immunosorbent assay.
For orientation: IC50 means the midpoint of a concentration-inhibition curve. Low readings indicate greater potency in that assay, high ones weaker potency in that assay. `CCN1CCC(c2cc3c(F)cc(-c4cc(CC#N)c5nc(C)cn5n4)cc3nn2)CC1` [Compound 205, {6-[3-(1-ethylpiperidin-4-yl)-5-fluorocinnolin-7-yl]-2-methylimidazo[1,2-b]pyridazin-8-yl}acetonitrile] had an IC50 of 100 to 500 nM.

The molecule `Cc1nc2c(C)cc(-c3cc(F)c4nc(C5CCNCC5)nnc4c3)cc2o1` [Compound 62, 7-(2,4-dimethyl-1,3-benzoxazol-6-yl)-5-fluoro-3-(piperidin-4-yl)-1,2,4-benzotriazine] had an IC50 of at most 100 nM.

`Cc1cn2cc(-c3nnc4cc(C5CCNCC5)cc(F)c4n3)cc(C)c2n1` [Compound 40, 3-(2,8-dimethylimidazo[1,2-a]pyridin-6-yl)-5-fluoro-7-(piperidin-4-yl)-1,2,4-benzotriazine] showed an IC50 of 100 to 500 nM.

Regarding `CCc1cc(-c2cc(F)c3cc(C4CCN(C)CC4)nnc3c2)nn2cc(C)nc12` [Compound 122, 7-(8-ethyl-2-methylimidazo[1,2-b]pyridazin-6-yl)-5-fluoro-3-(1-methylpiperidin-4-yl)cinnoline], the IC50 was at most 100 nM.

`Cn1cc2cc(-c3cc4ccc(C5=CCNCC5)cc4nn3)ccc2n1` [Compound 4, 3-(2-methyl-2H-indazol-5-yl)-7-(1,2,3,6-tetrahydropyridin-4-yl)cinnoline] registered an IC50 of 500 to 1000 nM.

Regarding `Cc1cn2cc(-c3cc(F)c4cc(C5CCNCC5)nnc4c3)cc(C)c2n1` [Compound 103, 7-(2,8-dimethylimidazo[1,2-a]pyridin-6-yl)-5-fluoro-3-(piperidin-4-yl)cinnoline], the half-maximal inhibitory concentration (IC50) is at most 100 nM.

In turn, `CCN1CCC(c2cc3c(F)cc(-c4cc(C5CC5)c5nc(C)cn5n4)cc3nn2)CC1` [Compound 115, 7-(8-cyclopropyl-2-methylimidazo[1,2-b]pyridazin-6-yl)-3-(1-ethylpiperidin-4-yl)-5-fluorocinnoline] gave an IC50 of at most 100 nM.

In the case of `Cn1cc2cc(-c3cc4c(F)cc(C5CCNCC5)cc4nn3)cc(F)c2n1` [Compound 151, 5-fluoro-3-(7-fluoro-2-methyl-2H-indazol-5-yl)-7-(piperidin-4-yl)cinnoline], the IC50 is at most 100 nM.

`Cc1cn2nc(-c3cc(F)c4cc(C5=CCNCC5)nnc4c3)cc(C)c2n1` [Compound 225, 7-(2,8-dimethylimidazo[1,2-b]pyridazin-6-yl)-5-fluoro-3-(1,2,3,6-tetrahydropyridin-4-yl)cinnoline] returned an IC50 of at most 100 nM.

For `Cc1cn2nc(-c3cc(F)c4cc(N5CCNCC5)nnc4c3)cc(C)c2n1` [Compound 80, 7-(2,8-dimethylimidazo[1,2-b]pyridazin-6-yl)-5-fluoro-3-(piperazin-1-yl)cinnoline], the IC50 is at most 100 nM.

Regarding `Cc1cn2nc(-c3cc(F)c4cc(C5CCNCC5)nnc4c3)cc(OCCCn3cnc4ccccc43)c2n1` [Compound 150, 7-{8-[3-(1H-benzimidazol-1-yl)propoxy]-2-methylimidazo[1,2-b]pyridazin-6-yl}-5-fluoro-3-(piperidin-4-yl)cinnoline], the IC50 is at most 100 nM.

Molecule `Cc1cn2nc(-c3cc(F)c4cc(N5CCC6(CNC6)C5)nnc4c3)cc(C)c2n1` [Compound 220, 3-(2,6-diazaspiro[3.4]octan-6-yl)-7-(2,8-dimethylimidazo[1,2-b]pyridazin-6-yl)-5-fluorocinnoline] displayed an IC50 of 100 to 500 nM.

On to `Cc1cn2nc(-c3cc(F)c4cc(C5C[C@H](C)N[C@@H](C)C5)nnc4c3)cc(C)c2n1` (stereo partly drawn) [Compound 87, 7-(2,8-dimethylimidazo[1,2-b]pyridazin-6-yl)-3-[(2S,6S)-2,6-dimethylpiperidin-4-yl]-5-fluorocinnoline], for which the IC50 is at most 100 nM.

`CCN1CCC(c2ccc3nc(-c4ccc5nn(C)cc5c4)ccc3c2)CC1` [Compound 2, 6-(1-ethylpiperidin-4-yl)-2-(2-methyl-2H-indazol-5-yl)quinoline]: the IC50 was in the range of 1000 to 3000 nM.

As to `Cc1cn2nc(-c3cc(F)c4cc(N5CCC(N(C)C)C5)nnc4c3)cc(C)c2n1` (stereo not drawn) [Compound 86, 1-[7-(2,8-dimethylimidazo[1,2-b]pyridazin-6-yl)-5-fluorocinnolin-3-yl]-N,N-dimethylpyrrolidin-3-amine], the IC50 is at most 100 nM.
